Laboratory results taken from ChEMBL document CHEMBL1201862, “PubChem BioAssay data set” (2004).
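Where inhibition never reached the appropriate level, the endpoint shown equals the highest concentration tested. Otherwise, values were interpolated linearly from a five-concentration, 48-hour dose response in 96-well plates. GI50 is the concentration that inhibits growth by half.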 Activity calls are given as the source filed them. Rule as the data show it: active = GI50 up to about 1.1 µM and inactive = higher.

Columns and labels:
Experiment in all cases: NCI-60 cell line screen, 48 h
[1] = test system: NCI-H23
[2] = test system: EKVX
[3] = test system: SK-MEL-5
[4] = test system: UACC-62
[5] = test system: NCI/ADR-RES
[6] = test system: SF-295
[7] = test system: K562
[8] = test system: OVCAR-5
[9] = test system: SNB-19
[10] = test system: HCC 2998
[11] = test system: SF-268
[12] = test system: A549
[13] = test system: RXF 393
[14] = test system: MDA-MB-435
[15] = test system: TK-10
[16] = test system: SK-OV-3
[17] = test system: BT-549
[18] = test system: DU-145
[19] = test system: A498
[20] = test system: UO-31

Measured: GI50

COc1cc2ccc(/C=C\[N+](=O)[O-])cc2cc1OC
inactive: [1] 2.5 µM | [2] 4.3 µM | [3] 4.76 µM | [4] 5.15 µM | [5] 6.43 µM | [6] 18.2 µM | [7] 2.39 µM | [8] 13.1 µM | [9] 7.52 µM | [10] 3.44 µM | [11] 3.36 µM | [12] 11.4 µM | [13] 1.87 µM | [14] 2.86 µM | [15] 3.08 µM | [16] 14.3 µM | [17] 2.32 µM | [18] 2.16 µM | [19] 15.5 µM | [20] 1.82 µM
